Paper PMC6797721, “Unveil the Anticancer Potential of Limomene Based Therapeutic Deep Eutectic Solvents” (Scientific Reports, 2019)

Legend:
Assay type in all cases: cell-based, Human
[1] = test system: HT29 cells; test: Antiproliferative assay in HT29 cell monolayer (MTS); details: isolated compounds, HT29, 24 hours, mean ± SD
Protocol: Human Caco-2 and HT29 cell lines were obtained from Deutsche Sammlung von Mikroorganismen und Zellkulturen (DSMZ, Germany) and American Type Culture Collection (ATCC, USA), respectively. These cell lines were cultured in RPMI 1640 medium supplemented with 10% of heat-inactivated fetal bovine serum (FBS) and 1% […] (PS). Cells were maintained at 37°C with 5% CO2 in a humidified incubator and routinely grown as a monolayer in 75 cm^2 culture flasks. The cell culture medium and supplements were purchased from Invitrogen (Gibco, Invitrogen Corporation, UK). Antiproliferative effect of […] and standard compounds was evaluated in HT29 cells, as described elsewhere. Briefly, cells were seeded at a density of 1 × 10^4 cells/well in 96-well culture plates. After 24 hours cells were incubated with different concentrations of the samples diluted in culture medium. Cells incubated only with culture medium were considered as control. Cell proliferation was measured after 24 hours using MTS, as mentioned above. Results were expressed in terms of percentage of living cells relatively to the control. At least three independent experiments were performed in triplicate. All data were expressed as mean ± standard errors (SD). GraphPad Prism 6 software was used to calculate EC50 values (the concentration of sample necessary to decrease 50% of cell population) and to analyse significant differences between data set through One-Way Analysis of Variance (ANOVA) following Dunnett's multiple comparison tests.

[2] = test system: Caco-2 cells; test: Cytotoxicity assay (MTS) in confluent non-differentiated Caco-2 cells; details: isolated compounds; Caco-2, 24 hours, mean ± SD
Protocol: (§1) Human Caco-2 and HT29 cell lines were obtained from Deutsche Sammlung von Mikroorganismen und Zellkulturen (DSMZ, Germany) and American Type Culture Collection (ATCC, USA), respectively. These cell lines were cultured in RPMI 1640 medium supplemented with 10% of heat-inactivated fetal bovine serum (FBS) and 1% […] (PS). Cells were maintained at 37°C with 5% CO2 in a humidified incubator and routinely grown as a monolayer in 75 cm^2 culture flasks. The cell culture medium and supplements were purchased from Invitrogen (Gibco, Invitrogen Corporation, UK). Cytotoxicity assay was performed using confluent and non-differentiated Caco-2 cells, a model considered to assess the effect of chemical/food compounds and nano/microparticles on the intestinal function since it shares characteristics of the enterocytes. The assay was performed as previously described by Rodrigues et al.[71]. Briefly, Caco-2 cells were seeded into 96-well plates at a density of 2 × 10^4 cells/well and allowed to grow for 7 days, with medium renewal every 48 hours. At day 7, cells were incubated with the samples diluted in culture medium. Cells incubated only with culture medium were considered as control. After 24 hours, cells were washed once with PBS (Sigma-Aldrich, USA) and cell viability was assessed using CellTiter 96® AQueous One Solution Cell Proliferation Assay (Promega, USA) containing MTS reagent, according to manufacturer's instructions. The absorbance was measured at 490 nm using a Spark® 10 M Multimode Microplate Reader (Tecan Trading AG, Switzerland) and cell viability was expressed in terms of percentage of living cells relatively to the control. At least three independent experiments were performed in triplicate. All data were expressed as mean ± standard errors (SD). GraphPad Prism 6 software was used to calculate EC50 values (the concentration of sample necessary to decrease 50% of cell population) and to analyse significant differences between data set through One-Way Analysis of Variance (ANOVA) following Dunnett's multiple comparison tests.

[3] = as above; details: human, confluent, non-differentiated Caco-2 cells; isolated compounds; Caco-2, 24 hours, mean ± SD
Protocol: as §1

[4] = test system: HT29 cells; test: Cell cycle assessment by flow cytometry; details: HT29, 24 hours, non-cytotoxic concentrations
Protocol: HT29 cell line was seeded at a density of 1 × 10^6 cells in a 25 cm^2 culture flask for 24 hours. Then, cells were incubated in different concentrations of the samples diluted in culture medium and culture medium alone (as control) for 24 hours. For flow cytometry analysis of DNA content, bare nuclei were prepared as described elsewhere. Briefly, cells were detached from the culture flasks with trypsin-EDTA 0.5% and washed one time with cold PBS. Finally, 1 × 10^6 cells were re-suspended in 1 mL of staining solution containing […] of Propidium Iodide (Sigma-Aldrich, USA), 1.5% (v/v) of Triton X-100 (Sigma-Aldrich, USA), 0.7 U/mL of DNase/protease-free Ribonuclease A (Thermo Scientific, USA) and 0.01 M of NaCl, followed by incubation at room temperature in the dark for 2 hours. Cell cycle was assessed by flow cytometry, using a CyFlow space (Partec GmbH) instrument, registering 30.000 events/sample as described previously.

[5] = test system: HT29 cells; test: Caspase-3 activity induction (apoptosis); details: HT29, 24 hours, 2 mM
Protocol: Apoptosis was evaluated by caspase-3 activity using NucView488TM and MitoView633TM Apoptosis Assay Kit (Biotium, USA) that allows the staining of living cells with a far-red fluorescent dye MitoView633TM, while the intracellular caspase-3/7 activity and cells nuclei morphological changes were stained with bright green fluorescent dye NucView488TM. HT29 cells were seeded at a density of 40.000 cell/cm^2 at 24-well plate for 24 hours. Then, cells were incubated another 24 hours with different concentrations of the samples diluted in culture medium and culture medium alone (as control). Staining was performed with 200 μL/well of culture medium containing 1 μL of NucView488TM and 1 μL of MitoView633TM for 2 hours.

CCCCCCCCCC(=O)O [CA, Capric acid]
EC50 [1]: 341 ± 81 µM | EC50 [2]: 1330 ± 223 µM

CC(C)Cc1ccc(C(C)C(=O)O)cc1 (centres unmarked) [IBU, Ibuprofen]
EC50 ([1]; Homo sapiens, HT-29): 2350 ± 88 µM | EC50 at 24 h [3]: 2890 ± 59 µM | Effect on cell cycle [4]: promoted cell cycle arrest in G1-phase

CC1CCC(C(C)C)C(O)C1 (centres unmarked) [Menthol, menthol]
EC50 ([1]; Homo sapiens, HT-29): 4730 µM | EC50 at 24 h [3]: 8080 ± 810 µM

S-Limonene
EC50 [1]: 661 ± 25 µM | Induction of apoptosis (caspase-3 activity) [5]: capable of inducing apoptosis via caspase-3 activity | EC50 [2]: 2640 ± 108 µM | Effect on cell cycle [4]: promoted cell cycle arrest in G1-phase
